What was measured:
[1] = Residual amount of SH group of NAC in the reagent after heat loading at 37°C (quantification with DTNB, absorbance at 412 nm); type: physicochemical; conditions: heat loading at 37°C for 5 days; for SH group residual amount: relative to reagent without heat loading
Method: (§1) Aminoguanidine was added to the above composition to prepare three kinds of reagents different in the concentration of aminoguanidine. The concentrations of aminoguanidine in these reagents were 10 mM, 20 mM and 40 mM respectively. After these reagents were subjected to heat loading at 37°C for 5 days, the residual activity of G6PDH was measured and the residual amount of SH group in NAC was quantified.
The quantification of SH group was carried out by using DTNB (5,5'-dithiobis(2-nitrobenzoic acid)). When DTNB is added to the reagent where NAC is present, disulfide linkages corresponding to the amount of SH groups in the NAC are cleaved to generate 5-mercapto-2-nitrobenzoic acid. When 5-mercapto-2-nitrobenzoic acid is generated, the absorbance at a wavelength of 412 nm is increased, and thus this increase can be measured to determine the amount of SH groups in the reagent.
(§2) In Table 1, the residual activity of G6PDH and the residual amount of SH group of NAC are expressed in percentage. These values are those relative to the activity of G6PDH and the amount of SH group of NAC in each reagent which without subjection to heat loading, was measured by the method described in Example 1. Table 1 […]

G6PDH = assay: Residual activity of G6PDH in CK activity measurement reagent after heat loading at 37°C (NADPH formation, absorbance at 340 nm); type: biochemical; conditions: heat loading at 37°C for 5 days; for G6PDH residual activity: relative to reagent without heat loading
Method: as §1
The activity of G6PDH was measured in the following manner. First, a solution wherein 20 mM magnesium chloride, 0.6 mM NADP and 0.5 mM G6P were dissolved in a solution containing 0.1 M glycylglycine (pH 8.5) was prepared. When 300 µl of this solution was mixed with 1 µl of the first reagent, NADPH is formed by the activity of G6DPH. When NADPH is formed, the absorbance at a wavelength of 340 nm is increased, and thus this increase is measured to determine the activity of G6PDH.
as §2

Row | SMILES | amount of SH group of NAC after heat loading (in words) [1] | SH group residual amount ([1]; stabilizer 20 mM in reagent) | SH group residual amount ([1]; stabilizer 40 mM in reagent) | activity of G6PDH after heat loading (in words) (G6PDH) | G6PDH residual activity (G6PDH; stabilizer 20 mM in reagent) | G6PDH residual activity (G6PDH; stabilizer 40 mM in reagent) | SH group residual amount ([1]; stabilizer 10 mM in reagent) | G6PDH residual activity (G6PDH; stabilizer 10 mM in reagent)
1 | CC(=O)NN [acetohydrazine, reference compound] | NAC was deteriorated to reduce the amount of SH group | 78.4% | 77.7% | the activity of G6PDH was lost | 84.3% | 87.8% |  | 
2 | N=C(N)NN [aminoguanidine] | without reducing the amount of SH group | 95.4% | 94.1% | the activity of G6PDH could be maintained | 92.6% | 94.8% | 92.2% | 88.2%

Source: EP1739169B1, “Clinical diagnostic reagent comprising glucose 6-phosphate dehydrogenase (G6PDH), method for stabilizing G6PDH, and use of a stabilizer for G6PDH” (SYSMEX CORPORATION, priority 2005, dated 2007)
